# Test results: patent US7998974B2, “Fused heterocyclic compounds and their use as sirtuin modulators” (Sirtris Pharmaceuticals, Inc., priority 2005, dated 2011)
# Biological target: T1, SIRT1 (Homo sapiens, UniProt Q96EB6)
# T1 sequence (Q96EB6 1-747): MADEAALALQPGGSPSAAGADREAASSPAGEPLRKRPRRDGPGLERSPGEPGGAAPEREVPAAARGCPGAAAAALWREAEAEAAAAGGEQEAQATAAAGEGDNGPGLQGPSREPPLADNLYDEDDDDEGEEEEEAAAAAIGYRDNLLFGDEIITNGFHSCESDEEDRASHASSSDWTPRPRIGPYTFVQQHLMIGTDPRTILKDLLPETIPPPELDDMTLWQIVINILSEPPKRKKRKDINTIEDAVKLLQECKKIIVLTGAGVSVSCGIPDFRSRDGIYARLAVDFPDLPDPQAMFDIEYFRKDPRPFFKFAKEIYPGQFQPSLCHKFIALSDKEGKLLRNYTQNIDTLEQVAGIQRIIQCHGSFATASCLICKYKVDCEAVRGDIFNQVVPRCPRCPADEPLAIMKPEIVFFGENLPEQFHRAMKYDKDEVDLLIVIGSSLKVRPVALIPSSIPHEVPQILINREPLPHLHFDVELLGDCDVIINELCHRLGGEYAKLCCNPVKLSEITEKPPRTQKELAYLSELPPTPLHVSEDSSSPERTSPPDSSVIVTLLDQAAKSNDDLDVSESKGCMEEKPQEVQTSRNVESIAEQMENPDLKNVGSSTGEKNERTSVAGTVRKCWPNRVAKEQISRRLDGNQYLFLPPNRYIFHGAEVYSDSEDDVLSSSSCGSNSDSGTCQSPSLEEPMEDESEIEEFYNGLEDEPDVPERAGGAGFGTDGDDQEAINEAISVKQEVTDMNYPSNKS
# Assay: Fluorescence polarization or mass spectrometry based assay to identify modulators of SIRT1 activity;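 also: deacetylation of a fluorophore-tagged p53-derived acetyl peptide by SIRT1, detected as fluorescence polarization after trypsin cleavage and streptavidin binding, compounds tested at 11 doses from 0.7 to 100 µM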
# Assay type: biochemical
# Settings: activation of SIRT1 (Table 3); read-out: ED50 (the source's name)
row,EC50 [µM],SMILES
1,101 to 150,Cc1[nH]c2ccccc2c1/C=C(\C#N)c1nc2ccccc2[nH]1 [Compound 1]
2,51 to 100,Nc1ccc(C(=O)Nc2ccc3[nH]c(-c4ccccc4)nc3c2)cc1 [Compound 4]
3,< 50,Cc1csc(NC(=O)c2ccccc2C(=O)O)c1-c1nc2ccccc2s1 [Compound 6]
4,< 50,N#C/C(=C\c1ccc(-c2ccc(C(=O)O)cc2)o1)c1nc2ccccc2[nH]1 [Compound 9]
5,< 50,COc1ccc2nc3s/c(=C\c4ccc(-c5ccc(Cl)c(C(=O)O)c5)o4)c(=O)n3c2c1 [Compound 10]
6,101 to 150,N#Cc1cc(Oc2nc3ccccc3s2)c(N2CCOCC2)cc1C#N [Compound 13]
7,51 to 100,Nc1ccc2nc(-c3ccc(-c4nc5ccc(N)cc5[nH]4)cc3)[nH]c2c1 [Compound 15]
8,> 150,Cc1[nH]c2ccccc2c1/C=C/c1nc2ccccc2c(=O)[nH]1 [Compound 17]
9,101 to 150,Cc1ccsc1/C=C(\C#N)c1nc2ccccc2[nH]1 [Compound 19]
10,51 to 100,O=C(Nc1c(C(=O)O)[nH]c2ccc(Br)cc12)c1ccc(F)cc1 [Compound 21]
11,> 150,COC(=O)c1[nH]c2cc(OC)c(OC)cc2c1NC(=O)c1cccc(OC)c1 [Compound 22]
12,51 to 100,O=C(Nc1cccc(-c2nc3ccccc3[nH]2)c1)c1ccco1 [Compound 25]
13,101 to 150,CCCCNc1c(-c2ccc(OC)c([N+](=O)[O-])c2)nc2c(C(=O)NC(CC(=O)O)C3CCCCC3)cccn12 (stereo not drawn) [Compound 28]
14,> 150,COc1ccc(-c2nc3c(C(=O)NC(CC(=O)O)C4CCCCC4)cccn3c2NCc2ccccc2)cc1[N+](=O)[O-] (stereo not drawn) [Compound 31]
15,101 to 150,CCCCNc1c(-c2ccc(OC)c([N+](=O)[O-])c2)nc2c(C(=O)NCCCN)cccn12 [Compound 33]
16,101 to 150,COc1ccc(-c2nc3c(C(=O)NCCCN)cccn3c2NCc2ccccc2)cc1[N+](=O)[O-] [Compound 34]
17,51 to 100,CC(=O)Nc1ccc(-c2nc3c(C(=O)NCc4cccc(CN)c4)cccn3c2NCc2ccccc2)cc1 [Compound 35]
18,101 to 150,COc1ccc(-c2nc3c(C(=O)NC(C)C(=O)NCCC#N)cccn3c2NCC2CCCO2)cc1 (stereo not drawn) [Compound 44]
19,51 to 100,CC(=O)Nc1ccc(-c2nc3c(C(=O)NCC(=O)NCCC#N)cccn3c2NCc2ccccc2)cc1 [Compound 47]
20,101 to 150,Cc1nn(C)c(Cl)c1-c1nc2c(C(=O)NC(C)C(=O)NCCC#N)cccn2c1NCc1ccccc1 (stereo not drawn) [Compound 48]
21,101 to 150,O=C(NCCN1CCNC1=O)c1cccn2c(NCc3ccccc3)c(-c3ccc(NC(=O)N4CCOCC4)cc3)nc12 [Compound 53]
22,> 150,O=C(Nc1ccc(-c2nc3c(C(=O)NCCN4CCNC4=O)cccn3c2NCc2ccccc2)cc1)c1ccco1 [Compound 54]
23,> 150,Cc1cc(C(=O)Nc2ccc(-c3nc4c(C(=O)NCCN5CCNC5=O)cccn4c3NCc3ccccc3)cc2)no1 [Compound 55]
24,< 50,O=C(NCCCN1CCCC1=O)c1cccn2c(NC3CCCCC3)c(-c3ccc(NC(=O)N4CCOCC4)cc3)nc12 [Compound 58]
25,51 to 100,O=C(NCCCN1CCCC1=O)c1cccn2c(NC3CCCCC3)c(-c3ccc(NC(=O)C4CC4)cc3)nc12 [Compound 60]
26,> 150,CCCCNc1c(-c2ccc(NC(=O)c3ccc(Cl)nc3)cc2)nc2c(C(=O)NCCCN3CCCC3=O)cccn12 [Compound 61]
27,< 50,COc1ccc2c(c1)C(=O)C(c1nc3ccccc3s1)C2=O (stereo not drawn) [Compound 62]
28,51 to 100,CN(C)/C=C(\C#N)c1nc2ccccc2[nH]1 [Compound 64]
29,101 to 150,Cc1nc2cc3nc4c5cccc6cccc(c(=O)n4c3cc2[nH]1)c65 [Compound 66]

# The remaining lines, values behind:
row,SMILES,EC50 [µM]
1,O=C(Nc1cccc(-c2nc3ccccc3[nH]2)c1)c1cccnc1 [Compound 3],> 150
2,COc1ccccc1NC(=O)Nc1nn(C)c2cccc(OC)c12 [Compound 7],101 to 150
3,COc1cccc2c1c(NC(=O)c1cc3ccccc3s1)nn2C [Compound 8],> 150
4,COc1cc(C(=O)Nc2cccc(-c3nc4ccccc4[nH]3)c2)cc(OC)c1OC [Compound 11],51 to 100
5,N#CC(C(=O)c1cc2ccccc2o1)c1nc2ccccc2s1 (stereo not drawn) [Compound 12],51 to 100
6,Nc1ccc2[nH]c(-c3cccc(-c4nc5cc(N)ccc5[nH]4)c3)nc2c1 [Compound 16],51 to 100
7,Nc1ccc2[nH]c(/C=C/c3nc4cc(N)ccc4[nH]3)nc2c1 [Compound 18],51 to 100
8,COC(=O)c1[nH]c2cc(OC)c(OC)cc2c1NC(=O)c1cccs1 [Compound 20],101 to 150
9,COc1cccc(C(=O)Nc2cccc(-c3cn4ccccc4n3)c2)c1 [Compound 23],> 150
10,COc1cc(/C=C(\C#N)c2nc3ccccc3[nH]2)cc(OC)c1OC [Compound 24],101 to 150
11,Cc1cccc(-c2nc3c(C(=O)NC4CCC(N)CC4)cccn3c2NCc2ccccc2)c1 (stereo not drawn) [Compound 26],101 to 150
12,CC(=O)Nc1ccc(-c2nc3c(C(=O)NC4CCC(N)CC4)cccn3c2NC2CCCCC2)cc1 (stereo not drawn) [Compound 27],51 to 100
13,CC(=O)Nc1ccc(-c2nc3c(C(=O)NC(CC(=O)O)C4CCCCC4)cccn3c2NC(C)(C)C)cc1 (stereo not drawn) [Compound 36],101 to 150
14,O=C(O)CC(NC(=O)c1cccn2c(NCc3ccccc3)c(-c3ccc4ccccc4c3)nc12)C1CCCCC1 (stereo not drawn) [Compound 38],> 150
15,COc1ccc(-c2nc3cc(C(=O)NC(CC(=O)O)c4ccc(C)cc4)ccn3c2NC2CCCCC2)cc1OC (stereo not drawn) [Compound 39],101 to 150
16,COc1ccc(-c2nc3cc(C(=O)NCc4cccc(CN)c4)ccn3c2NC2CCCCC2)cc1[N+](=O)[O-] [Compound 40],101 to 150
17,CC(=O)Nc1ccc(-c2nc3c(C(=O)NC(C)C(=O)NCCCN4CCCC4=O)cccn3c2NCc2ccccc2)cc1 (stereo not drawn) [Compound 41],101 to 150
18,N#CCCNC(=O)CNC(=O)c1cccn2c(NCC3CCCO3)c(-c3ccc(Cl)cc3)nc12 (stereo not drawn) [Compound 42],51 to 100
19,COc1cccc(-c2nc3c(C(=O)NC(C)C(=O)NCCC#N)cccn3c2NC2CCCCC2)c1 (stereo not drawn) [Compound 46],51 to 100
20,COCCNC(=O)c1cccn2c(NCc3ccccc3)c(-c3ccc(NC(=O)N4CCOCC4)cc3)nc12 [Compound 49],51 to 100
21,COCCNC(=O)c1cccn2c(NCc3ccccc3)c(-c3ccc(NC(=O)c4ccco4)cc3)nc12 [Compound 50],> 150
22,COCCNC(=O)c1cccn2c(NCc3ccccc3)c(-c3ccc(NC(=O)C4CC4)cc3)nc12 [Compound 51],51 to 100
23,CC(=O)NCCNC(=O)c1cccn2c(NCc3ccccc3)c(-c3ccc(NC(=O)c4ccco4)cc3)nc12 [Compound 52],101 to 150
24,CCCCNc1c(-c2ccc(NC(=O)CC(C)C)cc2)nc2c(C(=O)NCCN3CCNC3=O)cccn12 [Compound 56],> 150
25,CC(C)CC(=O)Nc1ccc(-c2nc3c(C(=O)NCCN4CCNC4=O)cccn3c2NC(C)(C)C)cc1 [Compound 57],> 150
26,O=C(Nc1ccc(-c2nc3c(C(=O)NCCCN4CCCC4=O)cccn3c2NC2CCCCC2)cc1)c1ccco1 [Compound 59],101 to 150
27,O=C(O)CCC(=O)Nc1cccc(-c2nc3cc4ccccc4cc3[nH]2)c1 [Compound 65],> 150

# Same assay, conditions: inhibition of SIRT1 (Table 4)
row,IC50 [µM],SMILES
1,< 50,COC(=O)CC(=O)Nc1ccccc1-c1nc2ccc(C(=O)NCc3ccc4c(c3)OCO4)cn2c1NC1CCCCC1 [Compound 84]
